Test results reported in patent EP4818168A1, “FUSED RING COMPOUND, PHARMACEUTICAL COMPOSITION THEREOF AND USE THEREOF” (priority 2023, dated 2025).
pIC50: −log10 of the molar value. Where two headings read alike, the source gives them in different places.

Key:
H82 cells = test: cells; format: cell-based; conditions: Homo sapiens
Description: CellTiter-Glo (CTG) is a rapid cell viability test method based on ATP detection. […] Adenosine triphosphate (ATP) participates in various enzymatic reactions in organisms and is an indicator of living cell metabolism. Its content directly reflects the number of living cells and cell status. During the experiment, equal volume of CTG reagent is added to the cultured cells to measure the luminescence value. The chemiluminescent signal value is proportional to the amount of ATP, thus reflecting the number of viable cells. Therefore, cell viability can be obtained by detecting the ATP content. Compounds that affect cell viability will inhibit cell viability in a concentration-dependent manner, allowing a curve to be fitted to obtain the IC50 value.
The experimental procedure is as follows: • 11. Place the cell suspension in a 15 mL centrifuge tube, centrifuge at 1000 rpm for 5 min at room temperature, discard the supernatant, and collect the cell pellet. • 12. Resuspend the cell pellet with preheated complete cell culture medium (RPMI1640+10%FBS+1%PS), and use a Countess® automated cell counter to detect cell viability and density. […] Transfer the compound solution to a 96-well plate seeded with cells (final concentration of DMSO 0.1%), and place in a cell incubator at 37°C, 5% CO2 for 6 days. • 15. […] Protect from light during the whole process. Perform optical signal readings using a SpectraMax i3x reader. • 16. Data analysis: Remaining activity (%) = 100% * (1 - ((LumDMSO - Lummedium) - Lumsample) / (LumDMSO - LumPBS/medium)). Use GraphPad Prism 9.0 software to draw an S-shaped dose-survival rate curve and calculate the IC50 value using a nonlinear regression model.

AURKA = target: T1, AURKA (Homo sapiens, UniProt O14965); format: cell-based; conditions: Jurkat cells, 24 h
T1 construct: endogenous in cells; host or cells: Jurkat cells
T1 sequence (O14965 1-403): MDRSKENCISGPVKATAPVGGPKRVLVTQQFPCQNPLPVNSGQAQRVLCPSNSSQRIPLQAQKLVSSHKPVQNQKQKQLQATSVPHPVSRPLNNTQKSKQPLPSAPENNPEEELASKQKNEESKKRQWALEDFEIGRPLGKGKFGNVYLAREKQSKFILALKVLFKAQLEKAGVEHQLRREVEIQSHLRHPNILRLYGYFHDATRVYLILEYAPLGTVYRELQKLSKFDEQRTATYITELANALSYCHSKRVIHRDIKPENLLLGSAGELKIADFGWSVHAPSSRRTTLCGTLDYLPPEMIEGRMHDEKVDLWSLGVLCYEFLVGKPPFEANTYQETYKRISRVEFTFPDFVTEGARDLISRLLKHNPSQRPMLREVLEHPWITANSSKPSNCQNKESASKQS
From the text: WB is a classical biochemical experimental method used to detect the abundance of a target protein in a sample of cells or biological tissue. It relies on specific antigen-antibody binding to detect protein signals from the sample processed by gel electrophoresis: the protein specifically binds to a primary antibody at an epitope; the primary antibody is then conjugated with a secondary antibody to amplify the signal cascade; the signal is read out by chemiluminescent or fluorescent detection. The intracellular protein content is ultimately characterized by the intensity of the optical signals. […] The DC50 value can be calculated by curve fitting of the protein WB exposure signals.
The experimental procedure is as follows: • 1. Seed Jurkat cells into a 12-well plate at 1×10^6 cells/500 µL/well. • 2. Mix the culture medium with the compound to a concentration that is twice the desired final concentration. […] Transfer the cell suspension to a centrifuge tube. Rinse the 12-well plate with PBS and then transfer the PBS from the plate to the same centrifuge tube. Centrifuge at 3000 rpm for 5 min at room temperature. Aspirate the supernatant using a vacuum pump. […] Lyse on ice for 20 min. • 4. Centrifuge the lysed sample at 13000 rpm for 20 min at 4°C. Mix the supernatant with 5× protein loading buffer. Boil at 100°C for 5 min and then cool. Store the denatured protein sample at -20°C. • 5. […] Run electrophoresis at 80 V for 20 min, and then at 120 V constant voltage for 60 min. • 6. Transfer the protein onto a nitrocellulose membrane in an ice bath at 250 mA constant current for 90 min. • 7. […] Incubate with a primary antibody overnight at 4°C. • 9. […] Incubate with a secondary antibody for 1-2 h at room temperature. • 10. […] Expose and image the membrane using a LICOR Odyssey DLx imager.

[1] = NCI-H82, H82 cells, 4000 cells/well, CellTiter-Glo, read-out: IC50 in H82 Cells

SMILES | pIC50 (H82 cells; [1]) | Percentage of AURKA Degradation Induced by 100 nM Compound in Jurkat Cells (AURKA; Table 2) | Percentage of AURKA Degradation Induced by 1 µM Compound in Jurkat Cells (AURKA; Table 2) | pIC50 (H82 cells; NCI-H82, read-out: IC50 in H82 Cells) | Percentage of AURKA Degradation Induced by 100 nM Compound in Jurkat Cells (AURKA; Table 1) | Percentage of AURKA Degradation Induced by 1 µM Compound in Jurkat Cells (AURKA; Table 1)
O=C1CCN(c2ccc(N3CCC(C(=O)N4CCN(c5ccc(Nc6ncc7c(n6)-c6ccc(Cl)cc6C(c6c(F)cccc6F)=NC7)cc5)CC4)CC3)nc2)C(=O)N1 [Compound A229] | > 6.00 | +++ (Degradation > 70%) | +++ (Degradation > 70%) | – | – | –
O=C1CCN(c2ccc(N3CC4COCC(C3)N4CC3CN(c4ccc(Nc5ncc6c(n5)-c5ccc(Cl)cc5C(c5c(F)cccc5F)=NC6)cc4)C3)nc2)C(=O)N1 [Compound A358] | > 6.00 | +++ (Degradation > 70%) | +++ (Degradation > 70%) | – | – | –
O=C1CCN(c2ccc(N3CCN(CC4(F)CN(c5ccc(Nc6ncc7c(n6)-c6ccc(Cl)cc6C(c6c(F)cccc6F)=NC7)cc5)C4)CC3)nc2)C(=O)N1 [Compound A259] | > 6.00 | +++ (Degradation > 70%) | +++ (Degradation > 70%) | – | – | –
O=C1CCN(c2cnc(N3CC(CN4CCN(c5ccc(Nc6ncc7c(n6)-c6ccc(Cl)cc6C(c6c(F)cccc6F)=NC7)cc5)C(=O)C4)C3)s2)C(=O)N1 [Compound A203] | > 6.00 | ++ (30% < Degradation ≤ 70%) | +++ (Degradation > 70%) | – | – | –
O=C1CCN(c2ccc(N3CCN(CC4CN(c5ccc(Nc6ncc7c(n6)-c6ccc(Cl)cc6C(c6c(F)cccc6F)=NC7)cn5)C4)CC3)nc2)C(=O)N1 [Compound A248] | > 6.00 | +++ (Degradation > 70%) | +++ (Degradation > 70%) | – | – | –
Cn1c(CN2CCN(c3ccc(N4CCC(=O)NC4=O)cc3)CC2)cnc1-c1ccc(Nc2ncc3c(n2)-c2ccc(Cl)cc2C(c2c(F)cccc2F)=NC3)cc1 [Compound A106] | > 6.00 | +++ (Degradation > 70%) | +++ (Degradation > 70%) | – | – | –
N#Cc1cc(N2CCN(C(=O)C3CCN(c4ccc(Nc5ncc6c(n5)-c5ccc(Cl)cc5C(c5c(F)cccc5F)=NC6)cc4)CC3)CC2)ccc1N1CCC(=O)NC1=O [Compound A304] | > 6.00 | +++ (Degradation > 70%) | +++ (Degradation > 70%) | – | – | –
O=C1CCN(c2ccc(N3CCN(CCCOc4cccc(Nc5ncc6c(n5)-c5ccc(Cl)cc5C(c5c(F)cccc5F)=NC6)c4)CC3)cc2)C(=O)N1 [Compound A102] | > 6.00 | + (Degradation ≤ 30%) | + (Degradation ≤ 30%) | – | – | –
O=C1CCN(c2cccc(C#CCN3CCn4c(cnc4-c4ccc(Nc5ncc6c(n5)-c5ccc(Cl)cc5C(c5c(F)cccc5F)=NC6)cc4)C3)c2)C(=O)N1 [Compound A145] | > 6.00 | – | – | – | – | –
O=C1CCN(c2cccc(N3CCN(CC#Cc4cccc(Nc5ncc6c(n5)-c5ccc(Cl)cc5C(c5c(F)cccc5F)=NC6)c4)CC3)c2)C(=O)N1 [Compound A98] | – | – | – | > 6.00 | – | –
O=C1CCN(c2cccc(N3CCN(CC#Cc4ccc(Nc5ncc6c(n5)-c5ccc(Cl)cc5C(c5c(F)cccc5F)=NC6)cc4)CC3)c2)C(=O)N1 [Compound A123] | – | + (Degradation ≤ 30%) | + (Degradation ≤ 30%) | – | – | –
COc1cc(Nc2ncc3c(n2)-c2ccc(Cl)cc2C(c2c(F)cccc2OC)=NC3)ccc1C(=O)N[C@H]1C[C@@H](C#Cc2cccc3c2CN(C2CCC(=O)NC2=O)C3=O)C1 (relative stereo) [Compound A6] | – | – | – | – | ++ (30% < Degradation ≤ 70%) | + (Degradation ≤ 30%)
Cc1ccc(N2CCN(CCC#Cc3cccc(Nc4ncc5c(n4)-c4ccc(Cl)cc4C(c4c(F)cccc4F)=NC5)c3)CC2)cc1N1CCC(=O)NC1=O [Compound A117] | – | ++ (30% < Degradation ≤ 70%) | ++ (30% < Degradation ≤ 70%) | – | – | –
Cc1c(N2CCN(CCc3cccc(Nc4ncc5c(n4)-c4ccc(Cl)cc4C(c4c(F)cccc4F)=NC5)c3)CC2)cncc1N1CCC(=O)NC1=O [Compound A162] | – | ++ (30% < Degradation ≤ 70%) | ++ (30% < Degradation ≤ 70%) | – | – | –
O=C1CCN(c2ccc(N3CCN(CC4CN([C@H]5CC[C@@H](Nc6ncc7c(n6)-c6ccc(Cl)cc6C(c6c(F)cccc6F)=NC7)CC5)C4)CC3)nc2)C(=O)N1 [Compound A247] | – | + (Degradation ≤ 30%) | + (Degradation ≤ 30%) | – | – | –
O=C1CCN(c2ccc(C#C[C@H]3C[C@H](NC(=O)c4ccc(Nc5ncc6c(n5)-c5ccc(Cl)cc5C(c5c(F)cccc5F)=NC6)cc4)C3)cc2)C(=O)N1 [Compound A53] | – | – | – | – | ++ (30% < Degradation ≤ 70%) | ++ (30% < Degradation ≤ 70%)
Cc1c(N2CCC(C#Cc3cccc(Nc4ncc5c(n4)-c4ccc(Cl)cc4C(c4c(F)cccc4F)=NC5)c3)CC2)cccc1N1CCC(=O)NC1=O [Compound A161] | – | + (Degradation ≤ 30%) | ++ (30% < Degradation ≤ 70%) | – | – | –
O=C1CCN(c2ccc(N3CC4(CC(NC(=O)c5ccc(Nc6ncc7c(n6)-c6ccc(Cl)cc6C(c6c(F)cccc6F)=NC7)cc5)C4)C3)nc2)C(=O)N1 [Compound A60] | – | – | – | – | +++ (Degradation > 70%) | +++ (Degradation > 70%)
O=C1CCN(c2ccc(N3CCC(N4CCN(c5ccc(Nc6ncc7c(n6)-c6ccc(Cl)cc6C(C6CC6)=NC7)cc5)C(=O)C4)CC3)nc2)C(=O)N1 [Compound A328] | – | ++ (30% < Degradation ≤ 70%) | ++ (30% < Degradation ≤ 70%) | – | – | –
O=C1CCN(c2ccc(N3CCN(CC4CN([C@H]5CC[C@H](Nc6ncc7c(n6)-c6ccc(Cl)cc6C(c6c(F)cccc6F)=NC7)CC5)C4)CC3)nc2)C(=O)N1 [Compound A246] | – | + (Degradation ≤ 30%) | ++ (30% < Degradation ≤ 70%) | – | – | –
O=C1CCN(c2ccc(C#CCN3CCn4c(cnc4-c4ccc(Nc5ncc6c(n5)-c5ccc(Cl)cc5C(c5c(F)cccc5F)=NC6)cc4)C3)cc2)C(=O)N1 [Compound A139] | – | +++ (Degradation > 70%) | +++ (Degradation > 70%) | – | – | –
O=C1CCN(c2cnc(N3CC(N4CCN(c5ccc(Nc6ncc7c(n6)-c6ccc(Cl)cc6C(c6c(F)cccc6F)=NC7)cc5)C(=O)C4)C3)s2)C(=O)N1 [Compound A201] | – | ++ (30% < Degradation ≤ 70%) | ++ (30% < Degradation ≤ 70%) | – | – | –
